Values of other authors in patent US20070218050A1, “Methods for treatment and prevention of otitis media using chemical penetration enhancers to facilitate transmembrane drug delivery into the middle ear” (Piedmont Pharmaceuticals LLC, priority 2005, published 2007).

Experiments:
[1] = round window membrane of the inner ear and cochlea; Marsh and Tom 1989
[2] = concentrations at or in excess of 50% v/v, applied to the middle ear; Vassalli et al. 1988

In the case of CC(O)CO (centres unmarked) [propylene glycol], the Inner ear ototoxicity [1] is given as “implicated in inner ear ototoxicity” and the “Damage to the middle ear” value [2] is given as “produces inflammation-related damage to the middle ear”.
